Results on six molecules are retold here after publication PMC7658073 (Clinical Pharmacokinetics, 2020).

Entries after “also recorded” stand apart in the source; their conditions may differ. Where only a bound is given, the exact number is not on record here.

Format in all cases: in vivo, human
A short description of series [1]: Phase I DDI study with sacubitril/valsartan. Particulars: vericiguat at steady state with sacubitril/valsartan.
Series [2] can be described thus: Phase I DDI study with midazolam.
A short description of series [3]: Phase I DDI study with sildenafil.
The mark [4] stands for this setting: sildenafil 100 mg with vericiguat vs with placebo.
[5] abbreviates: midazolam with vericiguat 10 mg vs midazolam alone.

On to `CCCCC(=O)N(Cc1ccc(-c2ccccc2-c2nnn[nH]2)cc1)[C@H](C(=O)O)C(C)C` [Valsartan, reference compound], for which, in series [1], the “Increase in AUC0–12,md (exposure)” value was determined as 12% and the “Increase in Cmax,md (peak concentration)” value came out at 13%.
As to `C[C@H](C[C@@H](Cc1ccc(-c2ccccc2)cc1)NC(=O)CCC(=O)O)C(=O)O` [LBQ657], in series [1], the “Increase in AUC0–12,md (exposure)” value is on record as “unchanged; also recorded: unaffected” and the “Increase in Cmax,md (peak concentration)” value was “unchanged; also recorded: unaffected”.
For `Cc1ncc2n1-c1ccc(Cl)cc1C(c1ccccc1F)=NC2` [Midazolam, reference compound], the “Reduction in midazolam exposure” value in series [2] (after 3 days pre-treatment and 1 day co-treatment with vericiguat 10 mg) is reported as 18%.
With `CCCc1nn(C)c2c(=O)[nH]c(-c3cc(S(=O)(=O)N4CCN(C)CC4)ccc3OCC)nc12` [Sildenafil, reference compound], in series [3] (setting [4]), the “Increase in exposure of sildenafil” value is recorded as 13% and the “Increase in maximum concentration of sildenafil” value is on record as 17%. In addition, the “Increase in exposure for sildenafil co-administered with vericiguat” value in series [3] (sildenafil 25, 50 or 100 mg, vs sildenafil with placebo) is reported as not above 22.4%.
As to `CCOC(=O)[C@H](C)C[C@@H](Cc1ccc(-c2ccccc2)cc1)NC(=O)CCC(=O)O` [Sacubitril, reference compound], in series [1], the “Increase in AUC0–12,md (exposure)” value amounted to 8% and the “Increase in Cmax,md (peak concentration)” value stood at 18%.
In the case of `OCc1ncc2n1-c1ccc(Cl)cc1C(c1ccccc1F)=NC2` [1ʹ-hydroxy midazolam], in series [2] (setting [5]), the “Decrease in AUC” value was determined as 12% and the “Decrease in Cmax” value stood at 16%.
